{"source": "patent EP4635944A1", "about": "“2-AZABICYCLO[3.1.1]HEPTANE COMPOUND” (Daiichi Sankyo Company, Limited, priority 2022, dated 2024)", "molecular_target": "T1, human OX2R (Homo sapiens, UniProt O43614)", "T1 construct": "host or cells: CHO-K1 (Chinese Hamster Ovary K1)", "T1 sequence (O43614 1-444)": "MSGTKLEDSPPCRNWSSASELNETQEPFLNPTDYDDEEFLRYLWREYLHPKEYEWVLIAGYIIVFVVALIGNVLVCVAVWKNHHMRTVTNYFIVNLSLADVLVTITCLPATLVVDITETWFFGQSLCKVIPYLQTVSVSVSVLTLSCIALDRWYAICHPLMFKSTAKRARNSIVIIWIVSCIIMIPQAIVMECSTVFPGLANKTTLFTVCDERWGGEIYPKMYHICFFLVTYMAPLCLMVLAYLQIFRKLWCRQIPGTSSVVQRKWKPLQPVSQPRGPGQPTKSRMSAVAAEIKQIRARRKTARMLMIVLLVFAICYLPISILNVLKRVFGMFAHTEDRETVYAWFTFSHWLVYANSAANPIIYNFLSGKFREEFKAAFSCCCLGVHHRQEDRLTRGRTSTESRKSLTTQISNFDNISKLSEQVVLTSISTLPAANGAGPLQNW", "experiment": "Evaluation of OX2R agonist activity (intracellular calcium, CHO-K1 cells with forced expression of human OX2R)", "format": "cell-based", "details": "CHO-K1 cells expressing human OX2R; 100% = 5 µM of the reference compound; read-out: hOX2R EC50", "protocol": "Evaluation of OX2R agonist activity\nChinese Hamster Ovary K1 (CHO-K1) cells (GenScript) with forced expression of human OX2R were seeded onto a 384 well microplate (Corning) at 7500 cells/well and cultured for 24 hours. 20 µL of the loading buffer (25 mM HEPES containing 1.25 mM of Probenecid and 2.5 µg/mL of Fluo 4-AM at final concentration, Hank's balanced salt solution, 0.06% Pluronic F-127, Quenching buffer) in the Calcium Kit II (DOJINDO LABORATORIES) was added, and the microplate was allowed to stand for 30 minutes. A reference compound (Example435 of WO 2019/027058, N-[(2S,3S)-2-[[3-(3,5-difluorophenyl)-2-fluoro-phenyl]methyl]-1-(2-hydroxy-2-methylpropanoyl)pyrrolidin-3-yl]ethanesulfonamide) or the test compound was added in 10 µL, and changes in intracellular calcium ion concentration were measured using FDSS7000EX (Hamamatsu Photonics K.K.) as a fluorescence intensity ratio obtained upon dual wavelength excitation at 480 nm and 540 nm. Note that the reference compound or test compound was dissolved in DMSO (final concentration of DMSO was 0.5%) and diluted with an assay buffer (20 mM HEPES, Hank's balanced salt solution, 0.1% BSA). The difference between the maximum and minimum fluorescence values between 5 and 7 seconds after the addition of the test compound or reference compound was used as the indicator. The value of wells to which the assay buffer containing no test compound was added was defined as 0%, and the value of wells to which 5 µM of the reference compound was added was defined as 100%. The 50% effective concentration (EC50 value) was determined from the values obtained when various concentrations of the test compound were added. […]", "data": [{"smiles": "CS(=O)(=O)NC1C(Cc2cccc(-c3cc(F)cc(F)c3)c2F)N(C(=O)C2CC2)C2CC1(F)C2", "note": "(single isomer, unassigned) [Example 36, N-{(3S,4R)-2-(Cyclopropylcarbonyl)-5-fluoro-3-[(2,3',5'-trifluoro[biphenyl]-3-yl)methyl]-2-azabicyclo[3.1.1]heptan-4-yl}methanesulfonamide or N-{(3R,4S)-2-(cyclopropylcarbonyl)-5-fluoro-3-[(2,3',5'-trifluoro[biphenyl]-3-yl)methyl]-2-azabicyclo[3.1.1]heptan-4-yl}methanesulfonamide]", "values": [{"measurement": "EC50", "result": 62, "unit": "nM"}]}, {"smiles": "CS(=O)(=O)NC1C2CC(C2)N(C(=O)C2CC2)C1Cc1ccnc(-c2cccc(Cl)c2)c1F", "note": "(single isomer, unassigned) [Example 60, N-[3-{[2-(3-Chlorophenyl)-3-fluoropyridin-4-yl]methyl}-2-(cyclopropylcarbonyl)-2-azabicyclo[3.1.1]heptan-4-yl]methanesulfonamide]", "values": [{"measurement": "EC50", "result": 75, "unit": "nM"}]}, {"smiles": "CC(C)(O)C(=O)N1C2CC(F)(C2)C(NS(C)(=O)=O)C1Cc1cccc(-c2cccc(Cl)c2)c1F", "note": "(single isomer, unassigned) [Example 61, N-[(3S,4R)-3-[(3'-Chloro-2-fluoro[biphenyl]-3-yl)methyl]-5-fluoro-2-(2-hydroxy-2-methylpropanoyl)-2-azabicyclo[3.1.1]heptan-4-yl]methanesulfonamide or N-[(3R,4S)-3-[(3'-chloro-2-fluoro[biphenyl]-3-yl)methyl]-5-fluoro-2-(2-hydroxy-2-methylpropanoyl)-2-azabicyclo[3.1.1]heptan-4-yl]methanesulfonamide]", "values": [{"measurement": "EC50", "result": 40, "unit": "nM"}]}, {"smiles": "CS(=O)(=O)N[C@H]1C2CC(C2)N(C(=O)C(O)C(F)F)[C@H]1Cc1cccc(-c2ccccc2)c1F", "note": "(single isomer, unassigned) [Example 72]", "values": [{"measurement": "EC50", "result": 112, "unit": "nM"}]}, {"smiles": "CCS(=O)(=O)N[C@H]1C2CC(C2)N(C(=O)[C@@H](C)O)[C@H]1Cc1cccc(-c2ccccc2)c1F", "note": "(single isomer, unassigned) [Example 80]", "values": [{"measurement": "EC50", "result": 16, "unit": "nM"}]}, {"smiles": "CCS(=O)(=O)NC1C2CC(C2)N(C(=O)[C@@H](C)O)C1Cc1cc(F)cc(-c2ccccc2)c1F", "note": "(single isomer, unassigned) [Example 81]", "values": [{"measurement": "EC50", "result": 43, "unit": "nM"}]}, {"smiles": "CS(=O)(=O)N[C@@H]1[C@H](Cc2cc(F)cc(-c3cccc(Cl)c3)c2F)N(C(=O)[C@H](O)C(F)(F)F)C2CC1(F)C2", "note": "(single isomer, unassigned) [Example 82]", "values": [{"measurement": "EC50", "result": 79, "unit": "nM"}]}, {"smiles": "CCS(=O)(=O)N[C@@H]1[C@H](Cc2cccc(-c3ccccc3)c2F)N(C(=O)[C@@H](C)O)C2CC1(F)C2", "note": "(single isomer, unassigned) [Example 83]", "values": [{"measurement": "EC50", "result": 19, "unit": "nM"}]}, {"smiles": "CS(=O)(=O)N[C@@H]1[C@H](Cc2cccc(-c3ccccc3)c2F)N(C(=O)c2ccon2)C2CC1(F)C2", "note": "(single isomer, unassigned) [Example 84]", "values": [{"measurement": "EC50", "result": 231, "unit": "nM"}]}, {"smiles": "CC(C)(F)C(=O)N1C2CC(F)(C2)[C@H](NS(C)(=O)=O)[C@@H]1Cc1cccc(-c2ccccc2)c1F", "note": "(single isomer, unassigned) [Example 85]", "values": [{"measurement": "EC50", "result": 275, "unit": "nM"}]}, {"smiles": "C[C@H](O)CC(=O)N1C2CC(C2)[C@H](NS(C)(=O)=O)[C@@H]1Cc1cccc(-c2ccccc2)c1F", "note": "(single isomer, unassigned) [Example 86]", "values": [{"measurement": "EC50", "result": 112, "unit": "nM"}]}, {"smiles": "C=CS(=O)(=O)NC1C(Cc2cc(F)cc(-c3ccccc3)c2F)N(C(=O)[C@@H](C)O)C2CC1(F)C2", "note": "(single isomer, unassigned) [Example 96]", "values": [{"measurement": "EC50", "result": 9.9, "unit": "nM"}]}, {"smiles": "COc1cccc(-c2cccc(C[C@H]3[C@@H](NS(C)(=O)=O)C4CC(C4)N3C(=O)C(C)(C)O)c2F)c1", "note": "(stereo in doubt) [Example 14, N-[(3S,4S)-3-[(2-Fluoro-3'-methoxy[biphenyl]-3-yl)methyl]-2-(2-hydroxy-2-methylpropanoyl)-2-azabicyclo[3.1.1]heptan-4-yl]methanesulfonamide]", "values": [{"measurement": "EC50", "result": 298, "unit": "nM"}]}, {"smiles": "CC(C)(O)C(=O)N1C2CC(C2)[C@H](NS(C)(=O)=O)[C@@H]1Cc1cccc(-c2cccc(F)c2F)c1F", "note": "[Example 8, N-{(3S,4S)-2-(2-Hydroxy-2-methylpropanoyl)-3-[(2,2',3'-trifluoro[biphenyl]-3-yl)methyl]-2-azabicyclo[3.1.1]heptan-4-yl}methanesulfonamide]", "values": [{"measurement": "EC50", "result": 83, "unit": "nM"}]}, {"smiles": "Cc1cccc(-c2cccc(C[C@H]3[C@@H](NS(C)(=O)=O)C4CC(C4)N3C(=O)C(C)(C)O)c2F)c1", "note": "[Example 11, N-[(3S,4S)-3-[(2-Fluoro-3'-methyl[biphenyl]-3-yl)methyl]-2-(2-hydroxy-2-methylpropanoyl)-2-azabicyclo[3.1.1]heptan-4-yl]methanesulfonamide]", "values": [{"measurement": "EC50", "result": 60, "unit": "nM"}]}, {"smiles": "C[C@H](O)C(=O)N1C2CC(C2)[C@H](NS(C)(=O)=O)[C@@H]1Cc1cccc(-c2cc(F)cc(F)c2)c1F", "note": "[Example 15, N-{(3S,4S)-2-[(2S)-2-Hydroxypropanoyl]-3-[(2,3',5'-trifluoro[biphenyl]-3-yl)methyl]-2-azabicyclo[3.1.1]heptan-4-yl}methanesulfonamide]", "values": [{"measurement": "EC50", "result": 303, "unit": "nM"}]}, {"smiles": "C[C@@H](O)C(=O)N1C2CC(C2)[C@H](NS(C)(=O)=O)[C@@H]1Cc1cccc(-c2cc(F)cc(F)c2)c1F", "note": "[Example 16, N-{(3S,4S)-2-[(2R)-2-Hydroxypropanoyl]-3-[(2,3',5'-trifluoro[biphenyl]-3-yl)methyl]-2-azabicyclo[3.1.1]heptan-4-yl}methanesulfonamide]", "values": [{"measurement": "EC50", "result": 11, "unit": "nM"}]}, {"smiles": "CS(=O)(=O)N[C@H]1C2CC(C2)N(C(=O)[C@H]2CCCO2)[C@H]1Cc1cccc(-c2cc(F)cc(F)c2)c1F", "note": "[Example 17, N-{(3S,4S)-2-[(2R)-Tetrahydrofuran-2-ylcarbonyl]-3-[(2,3',5'-trifluoro[biphenyl]-3-yl)methyl]-2-azabicyclo[3.1.1]heptan-4-yl}methanesulfonamide]", "values": [{"measurement": "EC50", "result": 108, "unit": "nM"}]}, {"smiles": "CC(C)(O)C(=O)N1C2CC(C2)[C@H](NS(C)(=O)=O)[C@@H]1Cc1cccc(-c2cccc(C(F)(F)F)c2)c1F", "note": "[Example 18, N-[(3S,4S)-3-{[2-Fluoro-3'-(trifluoromethyl)[biphenyl]-3-yl]methyl}-2-(2-hydroxy-2-methylpropanoyl)-2-azabicyclo[3.1.1]heptan-4-yl]methanesulfonamide]", "values": [{"measurement": "EC50", "result": 784, "unit": "nM"}]}, {"smiles": "CS(=O)(=O)N[C@H]1C2CC(C2)N(C(=O)C2(F)CC2)[C@H]1Cc1cccc(-c2cc(F)cc(F)c2)c1F", "note": "[Example 19, N-{(3S,4S)-2-[(1-Fluorocyclopropyl)carbonyl]-3-[(2,3',5'-trifluoro[biphenyl]-3-yl)methyl]-2-azabicyclo[3.1.1]heptan-4-yl}methanesulfonamide]", "values": [{"measurement": "EC50", "result": 380, "unit": "nM"}]}, {"smiles": "CS(=O)(=O)N[C@H]1C2CC(C2)N(C(=O)C2CC2)[C@H]1Cc1cccc(-c2cc(F)cc(F)c2)c1F", "note": "[Example 20, N-{(3S,4S)-2-(Cyclopropylcarbonyl)-3-[(2,3',5'-trifluoro[biphenyl]-3-yl)methyl]-2-azabicyclo[3.1.1]heptan-4-yl}methanesulfonamide]", "values": [{"measurement": "EC50", "result": 32, "unit": "nM"}]}, {"smiles": "CC(C)(O)C(=O)N1C2CC(C2)[C@H](NS(C)(=O)=O)[C@@H]1Cc1cccc(-c2cccc(Cl)n2)c1F", "note": "[Example 21, N-[(3S,4S)-3-[3-(6-Chloropyridin-2-yl)-2-fluorobenzyl]-2-(2-hydroxy-2-methylpropanoyl)-2-azabicyclo[3.1.1]heptan-4-yl]methanesulfonamide]", "values": [{"measurement": "EC50", "result": 217, "unit": "nM"}]}, {"smiles": "C[C@@H](O)C(=O)N1C2CC(C2)[C@H](NS(C)(=O)=O)[C@@H]1Cc1cccc(-c2cccc(C(F)F)c2)c1F", "note": "[Example 24, N-{(3S,4S)-3-{[3'-(Difluoromethyl)-2-fluoro[biphenyl]-3-yl]methyl}-2-[(2R)-2-hydroxypropanoyl]-2-azabicyclo[3.1.1]heptan-4-yl}methanesulfonamide]", "values": [{"measurement": "EC50", "result": 15, "unit": "nM"}]}, {"smiles": "CC[C@@H](O)C(=O)N1C2CC(C2)[C@H](NS(C)(=O)=O)[C@@H]1Cc1cccc(-c2cc(F)cc(F)c2)c1F", "note": "[Example 26, N-{(3S,4S)-2-[(2R)-2-Hydroxybutanoyl]-3-[(2,3',5'-trifluoro[biphenyl]-3-yl)methyl]-2-azabicyclo[3.1.1]heptan-4-yl}methanesulfonamide]", "values": [{"measurement": "EC50", "result": 35, "unit": "nM"}]}, {"smiles": "CNC(=O)N1C2CC(C2)[C@H](NS(C)(=O)=O)[C@@H]1Cc1cccc(-c2cc(F)cc(F)c2)c1F", "note": "[Example 27, (3S,4S)-N-Methyl-4-[(methylsulfonyl)amino]-3-[(2,3',5'-trifluoro[biphenyl]-3-yl)methyl]-2-azabicyclo[3.1.1]heptane-2-carboxamide]", "values": [{"measurement": "EC50", "result": 61, "unit": "nM"}]}]}
